# Tests used:
# Test in all cases: Test C preemergence
# Assay type in all cases: in vivo
# [1] = test system: morningglory (Ipomoea coccinea); details: for Plant response rating, Morningglory: scale 0 to 100, 0 no effect, 100 complete control
# Procedure, shortened: (§1)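 Assessment: visual, 13–15 d after treatment, 0 (no effect) to 100 (complete control) relative to controls. Treatment: preemergence to seeds in loam-sand soil, or postemergence to 1- to 4-leaf plants in peat-based medium. Formulation: non-phytotoxic solvent mixture with surfactant.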
# [2] = test system: foxtail, giant (giant foxtail, Setaria faberii); details: for Plant response rating, Foxtail, Giant: scale 0 to 100, 0 no effect, 100 complete control
# Procedure, shortened: as §1
# [3] = test system: barnyardgrass (Echinochloa crus-galli); details: for Plant response rating, Barnyardgrass: scale 0 to 100, 0 no effect, 100 complete control
# Procedure, shortened: as §1
# [4] = test system: wheat (winter wheat, Triticum aestivum); details: for Plant response rating, Wheat: scale 0 to 100, 0 no effect, 100 complete control
# Procedure, shortened: as §1
# [5] = test system: waterhemp (common waterhemp, Amaranthus rudis); details: for Plant response rating, Waterhemp: scale 0 to 100, 0 no effect, 100 complete control
# Procedure, shortened: as §1
# [6] = test system: lambsquarters (Chenopodium album); details: for Plant response rating, Lambsquarters: scale 0 to 100, 0 no effect, 100 complete control
# Procedure, shortened: as §1
# [7] = test system: velvetleaf (Abutilon theophrasti); details: for Plant response rating, Velvetleaf: scale 0 to 100, 0 no effect, 100 complete control
# Procedure, shortened: as §1
# [8] = test system: ragweed (common ragweed, Ambrosia elatior); details: for Plant response rating, Ragweed: scale 0 to 100, 0 no effect, 100 complete control
# Procedure, shortened: as §1
# [9] = test system: Galium (catchweed bedstraw, Galium aparine); details: for Plant response rating, Galium: scale 0 to 100, 0 no effect, 100 complete control
# Procedure, shortened: as §1
# [10] = test system: blackgrass (Alopecurus myosuroides); details: for Plant response rating, Blackgrass: scale 0 to 100, 0 no effect, 100 complete control
# Procedure, shortened: as §1
# [11] = test system: soybean (Glycine max); details: for Plant response rating, Soybean: scale 0 to 100, 0 no effect, 100 complete control
# Procedure, shortened: as §1
# [12] = test system: corn (Zea mays); details: for Plant response rating, Corn: scale 0 to 100, 0 no effect, 100 complete control
# Procedure, shortened: as §1
# [13] = test system: ryegrass, Italian (Italian ryegrass, Lolium multiflorum); details: for Plant response rating, Ryegrass, Italian: scale 0 to 100, 0 no effect, 100 complete control
# Procedure, shortened: as §1
# [14] = test system: pigweed (Amaranthus retroflexus); details: for Plant response rating, Pigweed: scale 0 to 100, 0 no effect, 100 complete control
# Procedure, shortened: as §1
# [15] = test system: johnsongrass (Sorghum halepense); details: for Plant response rating, Johnsongrass: scale 0 to 100, 0 no effect, 100 complete control
# Procedure, shortened: as §1
# [16] = test system: crabgrass, large (large crabgrass, Digitaria sanguinalis); details: for Plant response rating, Crabgrass, Large: scale 0 to 100, 0 no effect, 100 complete control
# Procedure, shortened: as §1
# [17] = test system: nutsedge, yellow (yellow nutsedge, Cyperus esculentus); details: for Plant response rating, Nutsedge, Yellow: scale 0 to 100, 0 no effect, 100 complete control
# Procedure, shortened: as §1
# [18] = test system: oilseed rape (Brassica napus); details: for Plant response rating, Oilseed Rape: scale 0 to 100, 0 no effect, 100 complete control
# Procedure, shortened: as §1
# [19] = 31 g ai/ha, 0 is no effect, 100 is complete control
compound,measurement,setting,value
CN1CC(c2cccc(OC(F)F)c2)C(C(=O)Nc2ccccc2F)C1=O (stereo not drawn) [Compound 618],"Plant response rating (scale of 0 to 100), Morningglory",[1]; [19],0
same,"Plant response rating, Morningglory",[1]; 62 g ai/ha,0
same,"Plant response rating, Morningglory",[1]; 125 g ai/ha,10
same,"Plant response rating, Morningglory",[1]; 250 g ai/ha,5
same,"Plant response rating (scale of 0 to 100), Foxtail, Giant",[2]; [19],90
same,"Plant response rating, Foxtail, Giant",[2]; 62 g ai/ha,90
same,"Plant response rating, Foxtail, Giant",[2]; 125 g ai/ha,90
same,"Plant response rating, Foxtail, Giant",[2]; 250 g ai/ha,95
same,"Plant response rating (scale of 0 to 100), Barnyardgrass",[3]; [19],95
same,"Plant response rating, Barnyardgrass",[3]; 62 g ai/ha,95
same,"Plant response rating, Barnyardgrass",[3]; 125 g ai/ha,95
same,"Plant response rating, Barnyardgrass",[3]; 250 g ai/ha,98
same,"Plant response rating (scale of 0 to 100), Wheat",[4]; [19],20
same,"Plant response rating, Wheat",[4]; 62 g ai/ha,30
same,"Plant response rating, Wheat",[4]; 125 g ai/ha,75
same,"Plant response rating, Wheat",[4]; 250 g ai/ha,80
same,"Plant response rating (scale of 0 to 100), Waterhemp",[5]; [19],60
same,"Plant response rating, Waterhemp",[5]; 62 g ai/ha,60
same,"Plant response rating, Waterhemp",[5]; 125 g ai/ha,65
same,"Plant response rating, Waterhemp",[5]; 250 g ai/ha,85
same,"Plant response rating (scale of 0 to 100), Lambsquarters",[6]; [19],50
same,"Plant response rating, Lambsquarters",[6]; 62 g ai/ha,50
same,"Plant response rating, Lambsquarters",[6]; 125 g ai/ha,70
same,"Plant response rating, Lambsquarters",[6]; 250 g ai/ha,75
same,"Plant response rating (scale of 0 to 100), Velvetleaf",[7]; [19],0
same,"Plant response rating, Velvetleaf",[7]; 62 g ai/ha,5
same,"Plant response rating, Velvetleaf",[7]; 125 g ai/ha,55
same,"Plant response rating, Velvetleaf",[7]; 250 g ai/ha,60
same,"Plant response rating (scale of 0 to 100), Ragweed",[8]; [19],40
same,"Plant response rating, Ragweed",[8]; 62 g ai/ha,40
same,"Plant response rating, Ragweed",[8]; 125 g ai/ha,65
same,"Plant response rating, Ragweed",[8]; 250 g ai/ha,80
same,"Plant response rating (scale of 0 to 100), Galium",[9]; [19],0
same,"Plant response rating, Galium",[9]; 62 g ai/ha,0
same,"Plant response rating, Galium",[9]; 125 g ai/ha,85
same,"Plant response rating, Galium",[9]; 250 g ai/ha,90
same,"Plant response rating (scale of 0 to 100), Blackgrass",[10]; [19],0
same,"Plant response rating, Blackgrass",[10]; 62 g ai/ha,10
same,"Plant response rating, Blackgrass",[10]; 125 g ai/ha,60
same,"Plant response rating, Blackgrass",[10]; 250 g ai/ha,80
same,"Plant response rating (scale of 0 to 100), Soybean",[11]; [19],0
same,"Plant response rating, Soybean",[11]; 62 g ai/ha,10
same,"Plant response rating, Soybean",[11]; 125 g ai/ha,0
same,"Plant response rating, Soybean",[11]; 250 g ai/ha,0
same,"Plant response rating (scale of 0 to 100), Corn",[12]; [19],30
same,"Plant response rating, Corn",[12]; 62 g ai/ha,50
same,"Plant response rating, Corn",[12]; 125 g ai/ha,75
same,"Plant response rating, Corn",[12]; 250 g ai/ha,85
same,"Plant response rating (scale of 0 to 100), Ryegrass, Italian",[13]; [19],45
same,"Plant response rating, Ryegrass, Italian",[13]; 62 g ai/ha,50
same,"Plant response rating, Ryegrass, Italian",[13]; 125 g ai/ha,45
same,"Plant response rating, Ryegrass, Italian",[13]; 250 g ai/ha,55
same,"Plant response rating (scale of 0 to 100), Pigweed",[14]; [19],40
same,"Plant response rating, Pigweed",[14]; 62 g ai/ha,60
same,"Plant response rating, Pigweed",[14]; 125 g ai/ha,60
same,"Plant response rating, Pigweed",[14]; 250 g ai/ha,75
same,"Plant response rating (scale of 0 to 100), Johnsongrass",[15]; [19],20
same,"Plant response rating, Johnsongrass",[15]; 62 g ai/ha,60
same,"Plant response rating, Johnsongrass",[15]; 125 g ai/ha,85
same,"Plant response rating, Johnsongrass",[15]; 250 g ai/ha,85
same,"Plant response rating (scale of 0 to 100), Crabgrass, Large",[16]; [19],100
same,"Plant response rating, Crabgrass, Large",[16]; 62 g ai/ha,100
same,"Plant response rating, Crabgrass, Large",[16]; 125 g ai/ha,100
same,"Plant response rating, Crabgrass, Large",[16]; 250 g ai/ha,100
same,"Plant response rating (scale of 0 to 100), Nutsedge, Yellow",[17]; [19],0
same,"Plant response rating, Nutsedge, Yellow",[17]; 62 g ai/ha,0
same,"Plant response rating, Nutsedge, Yellow",[17]; 125 g ai/ha,0
same,"Plant response rating, Nutsedge, Yellow",[17]; 250 g ai/ha,10
same,"Plant response rating (scale of 0 to 100), Oilseed Rape",[18]; [19],60
same,"Plant response rating, Oilseed Rape",[18]; 62 g ai/ha,85
same,"Plant response rating, Oilseed Rape",[18]; 125 g ai/ha,90
same,"Plant response rating, Oilseed Rape",[18]; 250 g ai/ha,90

# — patent US12077503B2, “Substituted cyclic amides and their use as herbicides” (FMC CORPORATION, priority 2015, dated 2024)
